ChEMBL document CHEMBL5209568, “Membrane potential based assay for SLC5A11 using HEK-293 SLC5A11 OE cells” (2022)

Biological target: T1, Sodium/myo-inositol cotransporter 2 (Homo sapiens, UniProt Q8WWX8)
T1 sequence (Q8WWX8 whole entry): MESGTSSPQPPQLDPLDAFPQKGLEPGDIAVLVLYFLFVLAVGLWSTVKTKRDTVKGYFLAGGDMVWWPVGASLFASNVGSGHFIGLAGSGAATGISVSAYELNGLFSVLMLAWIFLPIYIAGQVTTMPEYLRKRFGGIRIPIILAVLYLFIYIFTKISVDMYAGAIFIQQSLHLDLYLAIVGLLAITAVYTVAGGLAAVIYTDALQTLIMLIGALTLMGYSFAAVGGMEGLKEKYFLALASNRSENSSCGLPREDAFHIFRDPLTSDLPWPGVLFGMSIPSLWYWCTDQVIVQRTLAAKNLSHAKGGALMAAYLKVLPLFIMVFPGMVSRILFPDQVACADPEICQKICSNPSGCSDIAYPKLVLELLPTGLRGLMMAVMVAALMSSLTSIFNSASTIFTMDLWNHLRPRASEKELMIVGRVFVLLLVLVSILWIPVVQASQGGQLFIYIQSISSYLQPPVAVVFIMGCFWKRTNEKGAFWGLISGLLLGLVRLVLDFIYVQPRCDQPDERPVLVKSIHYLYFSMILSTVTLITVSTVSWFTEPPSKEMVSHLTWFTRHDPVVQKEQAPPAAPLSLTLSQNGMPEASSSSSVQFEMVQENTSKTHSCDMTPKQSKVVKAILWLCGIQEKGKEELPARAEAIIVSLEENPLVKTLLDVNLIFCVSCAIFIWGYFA
Test: Substrate uptake by the Sodium/myo-inositol cotransporter 2 (SMIT2, SLC5A11) as assessed by the fluorescent FLIPR membrane potential dye in HEK-293 JumpIN-SLC5A11 cells (PubChem AID: 1794826)
Type: functional, cell-based, HEK293

EC50: 104 µM
Structure (SMILES): O[C@H]1[C@@H](O)[C@@H](O)[C@@H](O)[C@@H](O)[C@@H]1O
